Reference: patent publication US9062041B2 (Bayer Intellectual Property GmbH, priority 2011, dated 2015)

How the values were obtained:
Format in all cases: cell-based
[1] = molecular target: T1, human PGD receptor (Homo sapiens, UniProt Q13258); experiment: cAMP antagonism test on the human prostaglandin D receptor (HTRF cAMP detection); settings: selectivity towards hDP, IC50 measured by cAMP antagonism test
T1 sequence (Q13258 1-359): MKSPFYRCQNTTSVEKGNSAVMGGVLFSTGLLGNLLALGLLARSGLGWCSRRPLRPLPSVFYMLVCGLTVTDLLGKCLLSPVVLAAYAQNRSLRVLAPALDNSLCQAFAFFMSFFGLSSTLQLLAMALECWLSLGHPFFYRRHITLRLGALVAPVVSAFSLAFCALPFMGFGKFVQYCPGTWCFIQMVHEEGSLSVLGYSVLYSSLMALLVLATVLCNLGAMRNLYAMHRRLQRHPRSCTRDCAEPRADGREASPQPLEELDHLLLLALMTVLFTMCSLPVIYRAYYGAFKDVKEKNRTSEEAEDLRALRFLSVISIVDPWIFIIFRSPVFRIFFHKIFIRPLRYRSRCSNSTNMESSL
Outline: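 Cells pre-mixed with cAMP-d2 were preincubated with compound (0.8 nM–16.5 μM) for 20 min at RT, then stimulated with 3× PGD2 solution (6 nM, in PBS-IBMX) for 30 min at RT. After lysis (20 min), HTRF read at 665/620 nm; antagonism seen as rise in FRET ratio.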

[2] = molecular target: EP4 subtype of the human PGE2 receptor (Homo sapiens, UniProt P35408); experiment: cAMP antagonism test on the human EP4 receptor (HTRF cAMP detection); settings: selectivity towards hEP4, IC50 measured by cAMP antagonism test
Outline: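 Cells expressing human EP4 preincubated 20 min at RT with compound (0.8 nM–16.5 μM), then stimulated with PGE2 (0.3 nM in 3× solution, with IBMX) 60 min at RT. After lysis, cAMP measured by HTRF competition (665/620 nm ratio); antagonism seen as rise in FRET signal.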

[3] = molecular target: EP2 subtype of the human PGE2 receptor (Homo sapiens, UniProt P43116); experiment: cAMP antagonism test on the human EP2 receptor (HTRF cAMP detection); settings: hEP2 receptor, read-out: Antagonism hEP2 IC50
Outline: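 Cells expressing human EP2 preincubated 20 min at RT with compound (0.8 nM–16.5 μM), then stimulated 60 min with PGE2 (3× solution 1.5 nM) in PBS-IBMX. After 20 min lysis, cAMP measured by competitive HTRF with cAMP-d2 and Eu cryptate anti-cAMP antibody (665/620 nm ratio).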

EP2 subtype of the human PGE2 receptor, sequence (P43116 whole entry): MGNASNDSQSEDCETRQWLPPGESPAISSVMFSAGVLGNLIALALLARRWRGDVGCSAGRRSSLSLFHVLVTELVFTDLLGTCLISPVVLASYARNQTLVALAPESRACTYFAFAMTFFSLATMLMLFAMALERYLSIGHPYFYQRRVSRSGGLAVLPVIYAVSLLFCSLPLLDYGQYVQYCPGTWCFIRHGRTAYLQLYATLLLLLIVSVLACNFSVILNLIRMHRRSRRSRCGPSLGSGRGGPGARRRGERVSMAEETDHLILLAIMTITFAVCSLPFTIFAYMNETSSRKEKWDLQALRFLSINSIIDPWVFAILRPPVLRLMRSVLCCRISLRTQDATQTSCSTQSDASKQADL
EP4 subtype of the human PGE2 receptor, sequence (P35408 whole entry): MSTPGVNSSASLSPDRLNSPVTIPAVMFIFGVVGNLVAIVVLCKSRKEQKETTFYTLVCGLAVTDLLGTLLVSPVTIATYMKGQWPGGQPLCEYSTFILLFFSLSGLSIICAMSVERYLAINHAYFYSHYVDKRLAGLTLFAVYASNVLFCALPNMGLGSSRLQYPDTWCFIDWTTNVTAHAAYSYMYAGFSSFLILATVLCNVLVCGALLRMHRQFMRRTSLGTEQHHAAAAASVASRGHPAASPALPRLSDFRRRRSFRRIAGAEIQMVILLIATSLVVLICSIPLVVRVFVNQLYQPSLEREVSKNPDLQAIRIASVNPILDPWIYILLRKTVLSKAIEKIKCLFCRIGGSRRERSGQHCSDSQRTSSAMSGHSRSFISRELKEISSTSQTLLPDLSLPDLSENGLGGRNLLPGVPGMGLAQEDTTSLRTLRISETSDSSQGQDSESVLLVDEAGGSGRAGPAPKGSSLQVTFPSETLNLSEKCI

Compound	Selectivity hEP2/hDP [1]	Selectivity hEP2/hEP4 [2]	IC50 [3]
Cc1c(C(=O)NCC(F)(F)F)ccc2nn(CC3CCN(C(=O)c4cnc(-c5ccccc5)s4)CC3)cc12 [Example 298, 4-methyl-2-({1-[(2-phenylthiazol-5-yl)carbonyl]piperidin-4-yl}methyl)-N-(2,2,2-trifluoroethyl)-2H-indazol-5-carboxamide]	xx (xx: 10-100)	xx (xx: 10-100)	345 nM
COc1ccc2c(c1)cc(C(=O)N1CCC(Cn3cc4c(C)c(C(=O)NCC(F)(F)F)ccc4n3)CC1)n2C [Example 293, 2-({1-[(5-methoxy-1-methyl-1H-indol-2-yl)carbonyl]piperidin-4-yl}methyl)-4-methyl-N-(2,2,2-trifluoroethyl)-2H-indazol-5-carboxamide]	xxx (xxx > 100)	xxx (xxx > 100)	28.3 nM
COC(C)CNC(=O)c1ccc2nn(CC3CN(C(=O)c4ccc(Oc5ccc(F)cc5)cc4)C3)cc2c1C (racemic) [Example 147, (+/−)-2-({1-[4-(4-fluorophenoxy)benzoyl]azetidin-3-yl}methyl)-N-(2-methoxypropyl)-4-methyl-2H-indazol-5-carboxamide]	xxx (xxx > 100)	xxx (xxx > 100)	57.4 nM

Continued, values first:

Selectivity hEP2/hDP [1]	Selectivity hEP2/hEP4 [2]	IC50 [3]	Compound
xxx (xxx > 100)	xxx (xxx > 100)	43 nM	Cc1c(C(=O)NCC(F)(F)F)ccc2nn(CC3CCN(C(=O)c4ccc(-c5ccc(C(F)(F)F)cc5)cc4)CC3)cc12 [Example 315, 4-methyl-N-(2,2,2-trifluoroethyl)-2-[(1-{[4′-(trifluoromethyl)biphenyl-4-yl]-carbonyl}piperidin-4-yl)methyl]-2H-indazol-5-carboxamide]
xxx (xxx > 100)	xxx (xxx > 100)	5.48 nM	COCCNC(=O)c1ccc2nn(CC3CCN(C(=O)c4ccc(-c5ccc(C)c(C)c5)cc4F)CC3)cc2c1C [Example 363, 2-({1-[(3-fluoro-3′,4′-dimethylbiphenyl-4-yl)carbonyl]piperidin-4-yl}methyl)-N-(2-methoxyethyl)-4-methyl-2H-indazol-5-carboxamide]
xx (xx: 10-100)	xx (xx: 10-100)	223 nM	Cc1c(C(=O)NCC2COCCO2)ccc2nn(CC3CCN(C(=O)c4ccc(Cl)cc4)CC3)cc12 (single isomer, unassigned) [Example 414, (R or S)-2-{[1-(4-chlorobenzoyl)piperidin-4-yl]methyl}-N-(1,4-dioxan-2-ylmethyl)-4-methyl-2H-indazol-5-carboxamide]
xxx (xxx > 100)	xxx (xxx > 100)	6.61 nM	COCCNC(=O)c1ccc2nn(CC3CCN(C(=O)c4ccc(-c5ccc(OC)cc5F)cc4F)CC3)cc2c1C [Example 364, 2-({1-[(2′,3-difluoro-4′-methoxybiphenyl-4-yl)carbonyl]piperidin-4-yl}methyl)-N-(2-methoxyethyl)-4-methyl-2H-indazol-5-carboxamide]
xxx (xxx > 100)	xxx (xxx > 100)	42.4 nM	COCCNC(=O)c1ccc2nn(CC3CCN(C(=O)c4ccc(Oc5cccnc5)cc4)CC3)cc2c1C [Example 343, N-(2-methoxyethyl)-4-methyl-2-({1-[4-(3-pyridyloxy)benzoyl]piperidin-4-yl}methyl)-2H-indazol-5-carboxamide]
